Measured values as given in PMC4172534 (Neuroscience, 2014).

Assays:
[1] = tested on: Homomeric GluK1 or GluK2 receptors; test: Whole-cell patch-clamp current response, homomeric GluK1 or GluK2 receptors; format: cell-based, rat; conditions: read-out: EC50 range; summary in discussion of own homomer values
GluK3/K5 heteromer = conditions: read-out: glutamate EC50; ref Perrais et al, 2009a; cited from earlier work
GluK3 homomers = conditions: read-out: glutamate EC50; ref Perrais et al, 2009a; cited from earlier work
GluK2 receptors = conditions: literature range; ref Jones et al., 1997; Alt et al., 2004; Jane et al., 2009; cited from earlier work
GluK2/K5 receptors = conditions: literature range; ref Jones et al., 1997; Alt et al., 2004; Jane et al., 2009; cited from earlier work

| Structure (SMILES) | EC50 [1] | EC50 (GluK3/K5 heteromer) | EC50 (GluK3 homomers) | EC50 (GluK2 receptors) | EC50 (GluK2/K5 receptors) |
| --- | --- | --- | --- | --- | --- |
| N[C@@H](CCC(=O)O)C(=O)O [glutamate] | 100 to 200 µM | 6000 µM | 10000 µM | – | – |
| C=C(C)[C@H]1CN[C@H](C(=O)O)[C@H]1CC(=O)O [kainate] | – | – | – | 1 to 5 µM | 1 to 5 µM |
